Series [1] concerns the target T1, FPTase (Homo sapiens, UniProt P49354+P49356). The series can be described thus: in vitro FTase Inhibition Assay, H-Ras used as substrate for farnesylation. The class given is biochemical. The note with it: Table I, read-out: IC50 H-Ras*.
Series [2] has as its target T1, FPTase. The experiment in a line: in vitro FTase Inhibition Assay, K-Ras used as substrate for farnesylation. The class given is biochemical. The note with it: Table I. The protocol:
Enzyme test procedure: FPTase inhibition in vitro assay was performed according to James, G. L., Brown, M. S., and Goldstein, J. L., Methods in Enzymology, 1995, 255, 38-46; and Garcia, M. A., et al., J. Biol. Chem., 1993, 268, 18415-18420.
Materials—Purified FPTase (Moomaw, J. F. and Casey, P. J., J. Biol. Chem., 1992, 267, 17438-17443), purified His6-Ras, inhibitor compounds at 10 mg/ml or 10 mM in 100% DMSO, ^3H-FPP (50,000 dpm/pmol) Amersham, TCA/SDS (6%/2%), TCA (6%), Glass fiber filters ([…]), vacuum manifold or 96 well filtration plates.
Methods—1. Dilute FPTase inhibitors from stock solutions to 2.5× in 2.5% DMSO, 10 mM DTT, 0.5% octyl-B-glucoside. 2. Solution #1 is added to FPTase reaction in a volume of […]. 3. Standard reaction mix, […], contains 50 mM Tris (7.5), 10 mM ZnCl2, 3 mM MgCl2, 20 mM KCl, 5 mM DTT, 0.2% octyl-B-glucoside, 1% DMSO, […] His6-Ras, 10 ng FPTase, and various concentrations of FPTase inhibitors. 4. Incubate for 30-90 min at 25° C. 5. Stop reactions with TCA/SDS (6%/2%), hold at 4° C. for 45-60 min. 6. Filter by manifold or 96 well plate, wash filter 3-5× with TCA (6%). 7. Add scintillant to filters, measure ^3H-FPP incorporation into Ras protein.
Analysis of Results—Percent inhibition by test compounds is determined by the following:
(cpm from precipitated Ras with test compounds)−(background cpm)×100=% inhibition.
(cpm from precipitated Ras without test compounds)−(background cpm)

In series [3] the test system is K-ras dependent human colon carcinoma (LoVo). The series can be described thus: in vivo effects against K-ras dependent human colon carcinoma (LoVo). The note with it: for S/T = No. Survivors/No.Treated: Day +35 post tumor cell implantation. The source says:
[…] For the compound of example 114, when tested against a K-ras dependent human colon carcinoma (LoVo), the following results were obtained (Table III):

[4] abbreviates: 50 mg/kg per dose IP, BID days 1 through 20, control 0.5% Methocel 0.4% Tween 80.
[5] abbreviates: 75 mg/kg per dose IP, BID days 1 through 20, control 0.5% Methocel 0.4% Tween 80.
Setting [6] is: 100 mg/kg per dose IP, once a day on days 1 through 20, control 0.5% Methocel 0.4% Tween 80.
The mark [7] stands for this setting: 100 mg/kg per dose PO, BID days 1 through 20, control 0.5% Methocel 0.4% Tween 80.
Where [8] appears, read: 100 mg/kg per dose PO, BID days 1 through 20, control 20% BCD in 1.1N HCl.
Setting [9] is: 75* mg/kg per dose IP, BID days 1 through 20, prepared in 2% Tween 80 in D5W, control 2% Tween in D5W.
The mark [10] stands for this setting: 1 mg/kg per dose IP, days 5, 9 and 13, control 0.5% Methocel 0.4% Tween 80.

`O=C1NC(=O)C(CCCC#Cc2ccc(-n3cccc3)cc2)(S(=O)(=O)c2ccc(OC(F)(F)F)cc2)S1` (stereo not shown) [Example 163, 5-[5-(4-Pyrrol-1-ylphenyl)pent-4-ynyl]-5-(4-trifluoromethoxybenzenesulfonyl)-thiazolidine-2,4-dione] showed a melting point of 204 to 206 °C. In series [1], the IC50 is 1300 nM.

For the compound `COc1ccc(S(=O)(=O)C2(CCCC#Cc3ccccc3Cl)SC(=O)NC2=O)cc1` (stereo not shown) [Example 101, 5-[5-(2-Chlorophenyl)pent-4-ynyl]-5-(4-methoxybenzenesulfonyl)thiazolidine-2,4-dione], the melting point was 133 to 135 °C. Moreover, in series [1], the IC50 fell in the range of 10 to 30 nM. In series [2], this compound gave an IC50 of 110 to 1000 nM.

`COc1ccc(S(=O)(=O)C2(CCCC#Cc3cc(Cl)ccc3Cl)SC(=O)NC2=O)cc1` (stereo not shown) [Example 114, 5-[5-(2,5-Dichloro-phenyl)pent-4-ynyl]-5-(4-methoxy-benzenesulfonyl)-thiazolidine-2,4-dione]: in series [1], the 50% inhibitory concentration (IC50) lay in the range of 13 to 32 nM. Moreover, the IC50 in series [2] fell in the range of 32 to 320 nM. In series [3] (setting [4]), the “% T/C, Day8” value amounted to 74%; the “% T/C, Day 15” value came to 47%; the “% T/C, Day 22” value worked out at 43%; the “% T/C, Day 29” value came to 59%. Besides, in series [3] (setting [4]), the “% T/C, Day 36” value is given as 76%; the “Mean Tumor Weight, Day8” value was determined as 65 mg; the “Mean Tumor Weight, Day 15” value was 146 mg; the “Mean Tumor Weight, Day 22” value was 258 mg. Moreover, in series [3] (setting [4]), the “Mean Tumor Weight, Day 29” value was found to be 445 mg; the “Mean Tumor Weight, Day 36” value turned out to be 964 mg; the “S/T = No. Survivors/No.Treated” value is 5/10. Further, in series [3] (setting [5]), the “% T/C, Day8” value is given as 51%; the “% T/C, Day 15” value amounted to 36%; the “% T/C, Day 22” value came to 43%; the “% T/C, Day 29” value amounted to 67%. In series [3] (setting [5]), the “% T/C, Day 36” value came out at 60%; the “Mean Tumor Weight, Day8” value was determined as 45 mg; the “Mean Tumor Weight, Day 15” value was 110 mg; the “Mean Tumor Weight, Day 22” value is reported as 255 mg. In addition, in series [3] (setting [5]), the “Mean Tumor Weight, Day 29” value came out at 504 mg; the “Mean Tumor Weight, Day 36” value was found to be 764 mg; the “S/T = No. Survivors/No.Treated” value was 8/10. Besides, in series [3] (setting [6]), the “% T/C, Day8” value came to 35%; the “% T/C, Day 15” value is given as 41%; the “% T/C, Day 22” value is listed as 42%; the “% T/C, Day 29” value was 46%. In addition, in series [3] (setting [6]), the “% T/C, Day 36” value is on record as 44%; the “Mean Tumor Weight, Day8” value was 31 mg; the “Mean Tumor Weight, Day 15” value stood at 125 mg; the “Mean Tumor Weight, Day 22” value is recorded as 251 mg. In addition, in series [3] (setting [6]), the “Mean Tumor Weight, Day 29” value was determined as 341 mg; the “Mean Tumor Weight, Day 36” value is listed as 559 mg; the “S/T = No. Survivors/No.Treated” value was 9/10. For the same compound, in series [3] (setting [7]), the “% T/C, Day8” value is reported as 70%; the “% T/C, Day 15” value was found to be 77%; the “% T/C, Day 22” value was found to be 76%; the “% T/C, Day 29” value came out at 81%. Further, in series [3] (setting [7]), the “% T/C, Day 36” value was 74%; the “Mean Tumor Weight, Day8” value worked out at 61 mg; the “Mean Tumor Weight, Day 15” value is 238 mg; the “Mean Tumor Weight, Day 22” value amounted to 454 mg. For the same compound, in series [3] (setting [7]), the “Mean Tumor Weight, Day 29” value was 608 mg; the “Mean Tumor Weight, Day 36” value was determined as 934 mg; the “S/T = No. Survivors/No.Treated” value is 10/10. Further, in series [3] (setting [8]), the “% T/C, Day8” value came out at 81%; the “% T/C, Day 15” value is 95%; the “% T/C, Day 22” value worked out at 88%; the “% T/C, Day 29” value is reported as 128%. In series [3] (setting [8]), the “% T/C, Day 36” value turned out to be 107%; the “Mean Tumor Weight, Day8” value was 50 mg; the “Mean Tumor Weight, Day 15” value was 138 mg; the “Mean Tumor Weight, Day 22” value was found to be 299 mg. Further, in series [3] (setting [8]), the “Mean Tumor Weight, Day 29” value turned out to be 641 mg; the “Mean Tumor Weight, Day 36” value was 872 mg; the “S/T = No. Survivors/No.Treated” value was 9/10. Further, in series [3] (setting [9]), the “% T/C, Day8” value is reported as 221%; the “% T/C, Day 15” value worked out at 150%; the “% T/C, Day 22” value is 163%; the “% T/C, Day 29” value is 167%. Further, in series [3] (setting [9]), the “% T/C, Day 36” value came to 157%; the “Mean Tumor Weight, Day8” value stood at 86 mg; the “Mean Tumor Weight, Day 15” value is 182 mg; the “Mean Tumor Weight, Day 22” value turned out to be 324 mg. Besides, in series [3] (setting [9]), the “Mean Tumor Weight, Day 29” value is given as 478 mg; the “Mean Tumor Weight, Day 36” value stood at 666 mg; the “S/T = No. Survivors/No.Treated” value is given as 10/10.

Take `CC[C@]1(O)C[C@H]2CN(CCc3c([nH]c4ccccc34)[C@@](C(=O)OC)(c3cc4c(cc3OC)N(C=O)[C@H]3[C@@](O)(C(=O)OC)[C@H](OC(C)=O)[C@]5(CC)C=CCN6CC[C@]43[C@@H]65)C2)C1` [Vincristine, reference compound]: in series [3] (setting [10]), the “% T/C, Day8” value is 16%; the “% T/C, Day 15” value worked out at 8%; the “% T/C, Day 22” value is 14%; the “% T/C, Day 29” value was 19%. In series [3] (setting [10]), the “% T/C, Day 36” value is 15%; the “Mean Tumor Weight, Day8” value turned out to be 14 mg; the “Mean Tumor Weight, Day 15” value is recorded as 24 mg; the “Mean Tumor Weight, Day 22” value stood at 84 mg. In addition, in series [3] (setting [10]), the “Mean Tumor Weight, Day 29” value was found to be 139 mg and the “Mean Tumor Weight, Day 36” value is reported as 194 mg.

On to `COc1ccc(SC2(CCCCCCCCCC#Cc3ccc(Cl)cc3)SC(=O)NC2=O)cc1` (stereo not shown) [Example 94, 5-[11-(4-Chlorophenyl)undec-10-ynyl]-5-(4-methoxy-phenylsulfanyl)-thiazolidine-2,4-dione], for which the melting point was in the range of 54 to 56 °C.

`COC(=O)c1ccc(C#CCCCC2(S(=O)(=O)c3ccc(OC)cc3)SC(=O)NC2=O)c(C)c1` (stereo not shown) [Example 160, 4-{5-[5-(4-Methoxybenzenesulfonyl)-2,4-dioxothiazolidin-5-yl]pent-1-ynyl}-3-methylbenzoic Acid Methyl Ester]: the melting point fell in the range of 128 to 130 °C.

Compound `COc1ccc(S(=O)(=O)C2(CCCC#Cc3ccc(-n4cccc4)cc3)SC(=O)NC2=O)cc1` (stereo not shown) [Example 161, 5-(4-Methoxybenzenesulfonyl)-5-[5-(4-pyrrol-1-yl-phenyl)pent-4-ynyl]-thiazolidine-2,4-dione] came in with a melting point of 206 to 207 °C. Also, the IC50 in series [1] worked out at 900 nM.

Consider `COC(=O)Nc1ccc(C)c(C#CCCCC2(S(=O)(=O)c3ccc(OC)cc3)SC(=O)N(C(=O)OC)C2=O)c1` (stereo not shown) [Example 228, Methyl 5-(5-{5-[(methoxycarbonyl)amino]-2-methylphenyl}pent-4-ynyl)-5-[(4-methoxyphenyl)sulfonyl]-2,4-dioxo-1,3-thiazolidine-3-carboxylate], for which the IC50 was in the range of 4 to 70 nM in series [1] and 230 to 1000 nM in series [2].

For the compound `COc1ccc(S(=O)(=O)C2(CCCC#Cc3cc(NC(=O)OC(C)C)ccc3C)SC(=O)NC2=O)cc1` (stereo not shown) [Example 179, (3-(5-[5-(4-Methoxybenzenesulfonyl)-2,4-dioxothiazolidin-5-yl]pent-1-ynyl}-4-methylphenyl)carbamic Acid Isopropyl Ester], the values for the IC50 in series [1] and in series [2] were 2 to 32 nM and 5 to 70 nM, respectively.

Compound `COc1ccc(S(=O)(=O)C2(CCCCC#Cc3ccc(Cl)cc3)SC(=O)NC2=O)cc1` (stereo not shown) [Example 98, 5-[6-(4-Chlorophenyl)hex-5-ynyl]-5-(4-methoxyphenylsulfonyl)-thiazolidine-2,4-dione] registered a melting point of 145 to 148 °C.

`COc1ccc(S(=O)(=O)C2(CCCC#Cc3ccc(NC(=O)OC(C)(C)C)cc3)SC(=O)NC2=O)cc1` (stereo not shown) [Example 145, (4-{5-[5-(4-Methoxybenzensulfonyl)-2,4-dioxothiazolidin-5-yl)pent-1-ynyl}phenyl)carbamic Acid tert-Butyl Ester]: the IC50 in series [1] was in the range of 1200 to 1700 nM; in series [2], 5600 to 10000 nM.

A word on the IC50: it is the midpoint of a concentration-inhibition curve. As a reminder, the melting point is the temperature of the solid-liquid transition.

For the origin of these results see patent US6605628B1, “Method of using 5-(arysulfonyl)-, 5-(arylsulfanyl)-and 5-(arylsulfanyl)thiazolidine-2,4-diones for inhibition of farnesyl-protein transferase” (Wyeth Holdings Corporation, priority 2001, dated 2003).
